Assay results taken from the supplement of paper PMC10307832.

compound: C1=CC2=NC=CN=C2C=C1/C=C/3\C(=O)NC(=O)S3 + Nc1nc2[nH]cc(CCc3ccc(C(=O)N[C@@H](CCC(=O)O)C(=O)O)cc3)c2c(=O)[nH]1 [Pemetrexed] (partner 0.2 µM); assay: relative viability (nuclei count vs DMSO), 5 days (fraction); higher = more cells survive; details: first compound 0.02 µM
Method in brief: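 Relative viability is defined as nuclei in treated wells over nuclei in vehicle wells. Duplicate plates were run and medians reported. Lung cancer cell lines in 1536-well plates were dosed by pin tool one day after seeding, with one drug or with a fixed anchor-drug dose plus five library-drug doses (not always all listed) in √10 steps, and nuclei were counted after 5 days.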

Going from COR-L23 to COR-L 105, the relative viability rises from 0.187 to 1.13.

First: LOU-NH91
Second: ChaGo-K-1
The relative viability of the first is higher: 0.376 for the first, 0.263 for the second.

First: NCI-H2405
Second: HOP-62
The relative viability of the first is higher: 1.1 for the first, 0.319 for the second.

Going from LU99A to BEN, the relative viability rises from 0.167 to 0.824.

Going from HARA to HCC-78, the relative viability rises from 0.226 to 0.925.

Compared with NCI-H322M, LCLC-97TM1 is lower in relative viability: 0.622 for the first, 0.138 for the second.

Going from NCI-H2009 to A-427, the relative viability falls from 1.05 to 0.963.

Compared with NCI-H441, NCI-H661 is higher in relative viability: 0.25 for the first, 0.94 for the second.

Going from NCI-H1734 to NCI-H460, the relative viability falls from 0.384 to 0.0621.

Compared with NCI-H2347, SK-LU-1 is higher in relative viability: 0.417 for the first, 1.03 for the second.

First: 201T
Second: NCI-H1915
The relative viability of the first is lower: 0.316 for the first, 0.463 for the second.

Compared with HCC-827, LXF-289 is higher in relative viability: 0.246 for the first, 0.841 for the second.

Going from NCI-H23 to NCI-H647, the relative viability falls from 0.605 to 0.162.

same assay, conditions: first compound 0.06325 µM

First: H3255
Second: COR-L23
The relative viability of the first is higher: 0.559 for the first, 0.202 for the second.

Compared with COR-L 105, LOU-NH91 is lower in relative viability: 1.14 for the first, 0.326 for the second.

First: ChaGo-K-1
Second: NCI-H2405
The relative viability of the first is lower: 0.277 for the first, 1.28 for the second.

Going from HOP-62 to LU99A, the relative viability falls from 0.368 to 0.131.

First: BEN
Second: HARA
The relative viability of the first is higher: 0.813 for the first, 0.233 for the second.

Compared with HCC-78, NCI-H322M is lower in relative viability: 0.864 for the first, 0.631 for the second.

Going from LCLC-97TM1 to NCI-H2009, the relative viability rises from 0.199 to 1.1.

Compared with A-427, NCI-H441 is lower in relative viability: 1.03 for the first, 0.276 for the second.

First: NCI-H661
Second: NCI-H460
The relative viability of the first is higher: 1 for the first, 0.0629 for the second.

First: NCI-H2347
Second: SK-LU-1
The relative viability of the first is lower: 0.447 for the first, 1.1 for the second.

Compared with 201T, NCI-H1915 is higher in relative viability: 0.346 for the first, 0.456 for the second.

Compared with HCC-827, LXF-289 is higher in relative viability: 0.265 for the first, 0.823 for the second.

Compared with NCI-H23, NCI-H647 is lower in relative viability: 0.79 for the first, 0.19 for the second.

same assay, conditions: first compound 0.2 µM

Compared with H3255, COR-L23 is lower in relative viability: 0.577 for the first, 0.202 for the second.

Going from COR-L 105 to LOU-NH91, the relative viability falls from 1.08 to 0.391.

Going from ChaGo-K-1 to NCI-H2405, the relative viability rises from 0.262 to 1.22.

Going from HOP-62 to LU99A, the relative viability falls from 0.299 to 0.165.

Compared with BEN, HARA is lower in relative viability: 0.773 for the first, 0.256 for the second.

Going from HCC-78 to NCI-H322M, the relative viability falls from 0.932 to 0.646.

Going from LCLC-97TM1 to NCI-H2009, the relative viability rises from 0.187 to 1.01.

Compared with A-427, NCI-H441 is lower in relative viability: 0.959 for the first, 0.307 for the second.

Going from NCI-H661 to NCI-H1734, the relative viability falls from 0.982 to 0.427.

First: NCI-H460
Second: NCI-H2347
The relative viability of the first is lower: 0.071 for the first, 0.427 for the second.

Going from SK-LU-1 to 201T, the relative viability falls from 1.02 to 0.363.

First: NCI-H1915
Second: HCC-827
The relative viability of the first is higher: 0.489 for the first, 0.266 for the second.

Going from LXF-289 to NCI-H23, the relative viability falls from 0.789 to 0.636.

For NCI-H647, the relative viability was 0.168.

same assay, conditions: first compound 0.6325 µM

Going from H3255 to COR-L23, the relative viability falls from 0.616 to 0.19.

First: COR-L 105
Second: LOU-NH91
The relative viability of the first is higher: 1.12 for the first, 0.399 for the second.

First: ChaGo-K-1
Second: NCI-H2405
The relative viability of the first is lower: 0.265 for the first, 1.05 for the second.

First: HOP-62
Second: LU99A
The relative viability of the first is higher: 0.355 for the first, 0.176 for the second.

Going from BEN to HARA, the relative viability falls from 0.836 to 0.231.

Going from HCC-78 to NCI-H322M, the relative viability falls from 0.838 to 0.618.

Going from LCLC-97TM1 to NCI-H2009, the relative viability rises from 0.152 to 1.01.

Compared with A-427, NCI-H441 is lower in relative viability: 0.96 for the first, 0.229 for the second.

First: NCI-H661
Second: NCI-H1734
The relative viability of the first is higher: 0.845 for the first, 0.436 for the second.

Compared with NCI-H460, NCI-H2347 is higher in relative viability: 0.058 for the first, 0.444 for the second.

Compared with SK-LU-1, 201T is lower in relative viability: 0.967 for the first, 0.348 for the second.

First: NCI-H1915
Second: HCC-827
The relative viability of the first is higher: 0.478 for the first, 0.268 for the second.

Compared with LXF-289, NCI-H23 is lower in relative viability: 0.908 for the first, 0.6 for the second.

For NCI-H647, the relative viability was 0.178.

same assay, conditions: first compound 2 µM

Going from H3255 to COR-L23, the relative viability falls from 0.533 to 0.179.

Compared with COR-L 105, LOU-NH91 is lower in relative viability: 1.02 for the first, 0.407 for the second.

Compared with ChaGo-K-1, NCI-H2405 is higher in relative viability: 0.256 for the first, 0.859 for the second.

First: HOP-62
Second: LU99A
The relative viability of the first is higher: 0.307 for the first, 0.166 for the second.

Going from BEN to HARA, the relative viability falls from 0.644 to 0.249.

Compared with HCC-78, NCI-H322M is lower in relative viability: 0.927 for the first, 0.506 for the second.

Going from LCLC-97TM1 to NCI-H2009, the relative viability rises from 0.152 to 1.18.

Going from A-427 to NCI-H441, the relative viability falls from 0.903 to 0.253.

Going from NCI-H661 to NCI-H1734, the relative viability falls from 0.905 to 0.362.

First: NCI-H460
Second: NCI-H2347
The relative viability of the first is lower: 0.0661 for the first, 0.408 for the second.

Compared with SK-LU-1, 201T is lower in relative viability: 0.798 for the first, 0.312 for the second.

Going from NCI-H1915 to HCC-827, the relative viability falls from 0.483 to 0.274.

First: LXF-289
Second: NCI-H23
The relative viability of the first is higher: 0.899 for the first, 0.578 for the second.

Work on NCI-H647 yielded a relative viability of 0.182.
